Among the data in patent publication US6667333B2, “Herbicidal 3-(4,5 dihydroisoxazole- 3 yl) substituted benzoycyclohexenone derivatives” (BASF Aktiengesellschaft, priority 1999, dated 2003) are post-emergence action and melting point values, retold here.

Data set [1] concerns Chenopodium album. As to the kind of experiment: greenhouse post-emergence herbicidal test. Format: in vivo, Chenopodium album (lamb's-quarters). The settings on record: application rates of 0.25 or 0.125 kg/ha, 2 to 4 weeks. The source says:
(§1) The cultivation containers used were plastic flower pots containing loamy sand with approximately 3.0% of humus as the substrate. The seeds of the test plants were sown separately for each species.
(§2) For the post-emergence treatment, the test plants were first grown to a height of from 3 to 15 cm, depending on the plant habit, and only then treated with the active compounds which had been suspended or emulsified in water. The test plants were for this purpose either sown directly and grown in the same containers, or they were first grown separately as seedlings and transplanted into the test containers a few days prior to treatment. The application rate for the post-emergence treatment was 0.25 or 0.125 kg of a.s. (active substance)/ha.
(§3) Depending on the species, the plants were kept at 10-25° C. or 20-35° C. The test period extended over 2 to 4 weeks. During this time, the plants were tended, and their response to the individual treatments was evaluated.
(§4) The evaluation was carried out using a scale from 0 to 100. 100 means no emergence of the plants, or complete destruction of at least the aerial parts and 0 means no damage, or normal course of growth.
(§5) The plants used in the greenhouse experiments were of the following species: […]

Data set [2] deals with Avena fatua. Kind of data set: greenhouse post-emergence herbicidal test. It is filed as in vivo, Avena fatua (wild oat). The following applies: application rates of 0.25 or 0.125 kg/ha, 2 to 4 weeks.
Description: as §1, §2, §3, §4, §5

Data set [3] concerns Abutilon theophrasti. As to the kind of experiment: greenhouse post-emergence herbicidal test. The settings on record: application rates of 0.25 or 0.125 kg/ha, 2 to 4 weeks. It is filed as in vivo, Abutilon theophrasti (velvet leaf).
Description: as §1, §2, §3, §4, §5

Data set [4] relates to Polygonum persicaria. Kind of data set: greenhouse post-emergence herbicidal test. It is filed as in vivo, Polygonum persicaria (lady's-thumb). The settings on record: application rates of 0.25 or 0.125 kg/ha, 2 to 4 weeks.
Description: as §1, §2, §3, §4, §5

The test system of data set [5] is Echinochloa crus galli. As to the kind of experiment: greenhouse post-emergence herbicidal test. Format: in vivo, Echinochloa crus galli (barnyardgrass). The following applies: application rates of 0.25 or 0.125 kg/ha, 2 to 4 weeks.
Description: as §1, §2, §3, §4, §5

Data set [6] has as its system Brachiaria plantaginea. As to the kind of experiment: greenhouse post-emergence herbicidal test. Format: in vivo, Brachiaria plantaginea (alexandergrass). The settings on record: application rates of 0.25 or 0.125 kg/ha, 2 to 4 weeks.
Description: as §1, §2, §3, §4, §5

As for `Cc1c(C(=O)C2=C(O)CC(C)(C)CC2=O)ccc(S(C)(=O)=O)c1C1=NOC2CC12` (centres unmarked) [Compound 2.1], the melting point amounted to 102 °C. The post-emergence action entry in data set [1] is “very good”. For the same compound, the post-emergence action result in data set [2] is recorded as “very good”. Also, the post-emergence action entry in data set [3] is recorded as “very good”. The post-emergence action entry in data set [4] is “very good”. Further, the post-emergence action result in data set [5] was “very good”. Further, in data set [6], the post-emergence action entry is reported as “very good”.
With `Cc1c(C(=O)C2=C(O)C(C)CC(C)C2=O)ccc(S(C)(=O)=O)c1C1=NOC2CC12` (centres unmarked) [Compound 2.3, 2-[2-Methyl-3-(2-oxa-3-azabicyclo[3.1.0]hex-3-en-4-yl)-4-methylsulfonylbenzoyl]-1-hydroxy-4,6-dimethylcyclohex-1-en-3-one], the melting point was in the range of 90 to 96 °C.
On the same count and under the same terms, as for `CSC1(C)CCC(=O)C(C(=O)c2ccc(S(C)(=O)=O)c(C3=NOC4CC34)c2C)=C1O` (centres unmarked) [Compound 2.5], the figure is 100 to 106 °C; as for `CC1(C)CC(=O)C(C(=O)c2ccc(S(C)(=O)=O)c(C3=NOC4CC34)c2Cl)=C(O)C1` (centres unmarked) [Compound 2.7], 101 to 105 °C.
On the same count and under the same terms, as for `Cc1c(C(=O)C2=C(O)CC(C)(C)CC2=O)ccc(S(C)(=O)=O)c1C1=NOC2(C)CC12` (centres unmarked) [Compound 2.8], the figure is 112 to 120 °C; as for `Cc1c(C(=O)C2=C(O)C(C)CC(C)C2=O)ccc(S(C)(=O)=O)c1C1=NOC2(C)CC12` (centres unmarked) [Compound 2.12], 98 to 112 °C; as for `Cc1c(C(=O)C2=C(O)CC(C)(C)CC2=O)ccc(S(C)(=O)=O)c1C1=NOC2CC12C` (centres unmarked) [Compound 2.13], 120 to 127 °C.
On the same count and under the same terms, as for `Cc1c(C(=O)C2=C(O)C(C)(C)CCC2=O)ccc(S(C)(=O)=O)c1C1=NOC2(C)CC12` (centres unmarked) [Compound 2.14], the figure is 120 to 130 °C.

A word on the melting point: it is the temperature of the solid-liquid transition.
